Converted amounts (≈) assume the structure as drawn.
How the values were obtained:
Gram-positive bacteria = settings: cited from earlier work
[1] = Suspension of milled linezolid Form II and Form III in poloxamer vehicle; type: physicochemical; settings: 50 mg in one mL poloxamer vehicle, manual shaking one minute
Experimental: 50 mg of each form was weighed and one mL of poloxamer vehicle was added. The particles were re-suspended by manual shaking for one minute.

[2] = Particle size distribution by laser diffraction; type: physicochemical; settings: dispersive pressure 3 bar
Excerpt: Different crystal forms of linezolid were chosen and tested for their feasibility of suspension. Two crystal modifications (polymorphs) of Linezolid: Form II (FII) and Form III (FIII) were obtained from Symed labs Ltd (India). Approximately, 1 g each of FII and FIII was jet milled using a LaboMill jet miller (F.P.S. Food and Pharma Systems s.r.l, Italy) with an injection line pressure at 7 bar and the grind line at 4 bar. The particle size distribution of the raw and air-jet milled material was analyzed by laser diffraction (Sympatec GmbH, Helos Disperse). 5 mg of each sample was placed in a dry powder disperser (RODOS/M). A reference measurement was taken before running each sample for 5 sec at 2% optical concentration. The results were obtained at a pressure of 3 bars using lenses, R1 (0.18-0.35 μm) and R2 (0.25/0.45-87.5 μm) (Table 4). The data was collected using HELOS sensor and analyzed using Windox5 software.
The particle size distribution of the raw and air-jet milled material was analyzed by laser diffraction (Sympatec GmbH, Helos Disperse). The data on the size distribution for unmilled powder (R1) and milled powder (R4) were collected and analyzed. Air jet milling reduced the particle size from D10 4 to 6 μm (D10, 10% of the mass of the sample is comprised of particles with diameter less than this range) and D90 40 to 50 μm (D90, 90% of the mass of the sample is comprised of particles with is diameter less than this range) particle size distribution to a D10 0.4 to 0.50 μm and D90 4 to 5 μm.

[3] = Dry heat sterilization: appearance and chemical stability (UPLC)
[4] = Gamma irradiation: appearance and chemical stability (UPLC)
[5] = Nitrogen, no irradiation (—), Cold
[6] = Nitrogen, no irradiation (—), RT

Question: With CC(=O)NC[C@H]1CN(c2ccc(N3CCOCC3)c(F)c2)C(=O)O1 [Linezolid, (S)—N-[[3-[3-fluoro-4-(4-morpholinyl)phenyl]-2-oxo-5-oxazolidinyl]methyl] acetamide] as the molecule, how does the MIC (Gram-positive bacteria) read?
Answer: The MIC was 4 µg/mL (≈ 11.9 µM).

Question: Which “Suspension behaviour of air jet milled particles” value ([1]; listed as Form III) does the source give for CC(=O)NC[C@H]1CN(c2ccc(N3CCOCC3)c(F)c2)C(=O)O1 [FIII] here?
Answer: Its value is “formed lumps and were not evenly distributed”.

Question: What about the “Particle size distribution X10” value ([2]; Jet milled) of the same molecule?
Answer: The value was 0.63 ± 0.01 μm.

Question: And the “Particle size distribution X50” value ([2]; Jet milled)?
Answer: Its value is 2.06 ± 0.02 μm.

Question: What about the “Particle size distribution X90” value ([2]; Jet milled) of the same molecule?
Answer: Its value is 4.50 ± 0.12 μm.

Question: What about the “VMD (Volume mean diameter in μm)” value ([2]; Jet milled) of the same molecule?
Answer: Its value is 2.38 μm.

Question: What about the “Particle size distribution X10” value ([2]; Raw (pre-milled)) of the same molecule?
Answer: Its value is 1.03 μm.

Question: And the “Particle size distribution X50” value ([2]; Raw (pre-milled))?
Answer: The value was 4.33 μm.

Question: And the “Particle size distribution X90” value ([2]; Raw (pre-milled))?
Answer: The value was 11.46 μm.

Question: What about the “VMD (Volume mean diameter in μm)” value ([2]; Raw (pre-milled)) of the same molecule?
Answer: Its value is 5.52 μm.

Question: With CC(=O)NC[C@H]1CN(c2ccc(N3CCOCC3)c(F)c2)C(=O)O1 [FII, (S)—N-[[3-[3-fluoro-4-(4-morpholinyl)phenyl]-2-oxo-5-oxazolidinyl]methyl] acetamide] as the molecule, how does the “Suspension behaviour of air jet milled particles” value [1] read?
Answer: Its value is “dispersed uniformly”.

Question: And the Appearance ([3]; dry heat 120° C., 20 hr)?
Answer: Its Appearance is “Powder”.

Question: What about the “Chemical Stability % expected parent (2-8° C. (control) t = 0)” value (from here on “Chemical Stability % expected parent”) ([3]; dry heat 120° C., 20 hr) of the same molecule?
Answer: Its value is 100%.

Question: What about the Appearance ([3]; dry heat 120° C., 50 hr) of the same molecule?
Answer: The Appearance was “Powder”.

Question: And the “Chemical Stability % expected parent” value ([3]; dry heat 120° C., 50 hr)?
Answer: Its value is 99%.

Question: What about the Appearance ([3]; dry heat 130° C., 8 hr) of the same molecule?
Answer: The Appearance was “Yellow”.

Question: What about the “Chemical Stability % expected parent” value ([3]; dry heat 130° C., 8 hr) of the same molecule?
Answer: Its value is 39%.

Question: And the Appearance ([3]; dry heat 130° C., 20 hr)?
Answer: Its Appearance is “Yellow”.

Question: And the “Chemical Stability % expected parent” value ([3]; dry heat 130° C., 20 hr)?
Answer: Its value is 26%.

Question: What about the Appearance ([3]; dry heat 130° C., 50 hr) of the same molecule?
Answer: Its Appearance is “Yellow”.

Question: What about the “Chemical Stability % expected parent” value ([3]; dry heat 130° C., 50 hr) of the same molecule?
Answer: The value was 19%.

Question: And the Appearance ([3]; dry heat 140° C., 4 hr)?
Answer: The Appearance was “Yellow”.

Question: And the “Chemical Stability % expected parent” value ([3]; dry heat 140° C., 4 hr)?
Answer: Its value is 52%.

Question: And the Appearance ([3]; dry heat 140° C., 8 hr)?
Answer: Its Appearance is “Powder”.

Question: What about the “Chemical Stability % expected parent” value ([3]; dry heat 140° C., 8 hr) of the same molecule?
Answer: Its value is 97%.

Question: And the Appearance ([3]; dry heat 140° C., 20 hr)?
Answer: Its Appearance is “Yellow”.

Question: What about the “Chemical Stability % expected parent” value ([3]; dry heat 140° C., 20 hr) of the same molecule?
Answer: The value was 17%.

Question: What about the Appearance ([3]; dry heat 160° C., 2 hr) of the same molecule?
Answer: Its Appearance is “Yellow”.

Question: And the “Chemical Stability % expected parent” value ([3]; dry heat 160° C., 2 hr)?
Answer: Its value is 16%.

Question: And the “Stability % 25° C. day 28” value ([4]; Air, 15 KGy, Cold)?
Answer: Its value is 99.4%.

Question: And the “Stability % 40° C. day 28” value ([4]; Air, 15 KGy, Cold)?
Answer: The value was 98.0%.

Question: What about the “Stability % t = 0” value ([4]; Air, 15 KGy, Cold) of the same molecule?
Answer: Its value is 99%.

Question: What about the “Stability % 25° C. day 28” value ([4]; Air, 15 KGy, RT) of the same molecule?
Answer: Its value is 99.4%.

Question: And the “Stability % 40° C. day 28” value ([4]; Air, 15 KGy, RT)?
Answer: Its value is 99.1%.

Question: What about the “Stability % t = 0” value ([4]; Air, 15 KGy, RT) of the same molecule?
Answer: The value was 99.5%.

Question: What about the “Stability % 25° C. day 28” value ([4]; Air, 25 KGy, Cold) of the same molecule?
Answer: The value was 99.6%.

Question: What about the “Stability % 40° C. day 28” value ([4]; Air, 25 KGy, Cold) of the same molecule?
Answer: Its value is 99.7%.

Question: What about the “Stability % t = 0” value ([4]; Air, 25 KGy, Cold) of the same molecule?
Answer: The value was 100%.

Question: And the “Stability % 25° C. day 28” value ([4]; Air, 25 KGy, RT)?
Answer: Its value is 100%.

Question: And the “Stability % 40° C. day 28” value ([4]; Air, 25 KGy, RT)?
Answer: The value was 98.9%.

Question: What about the “Stability % t = 0” value ([4]; Air, 25 KGy, RT) of the same molecule?
Answer: Its value is 100%.

Question: And the “Stability % 25° C. day 28” value ([4]; Air, no irradiation (—), Cold)?
Answer: The value was 98.1%.

Question: And the “Stability % 40° C. day 28” value ([4]; Air, no irradiation (—), Cold)?
Answer: Its value is 99.6%.

Question: What about the “Stability % t = 0” value ([4]; Air, no irradiation (—), Cold) of the same molecule?
Answer: Its value is 100%.

Question: And the “Stability % 25° C. day 28” value ([4]; Air, no irradiation (—), RT)?
Answer: The value was 99.5%.

Question: What about the “Stability % 40° C. day 28” value ([4]; Air, no irradiation (—), RT) of the same molecule?
Answer: The value was 100.1%.

Question: What about the “Stability % t = 0” value ([4]; Air, no irradiation (—), RT) of the same molecule?
Answer: The value was 100%.

Question: What about the “Stability % 25° C. day 28” value ([4]; Nitrogen, 15 KGy, Cold) of the same molecule?
Answer: The value was 97.5%.

Question: What about the “Stability % 40° C. day 28” value ([4]; Nitrogen, 15 KGy, Cold) of the same molecule?
Answer: Its value is 99.3%.

Question: What about the “Stability % t = 0” value ([4]; Nitrogen, 15 KGy, Cold) of the same molecule?
Answer: The value was 100%.

Question: What about the “Stability % 25° C. day 28” value ([4]; Nitrogen, 15 KGy, RT) of the same molecule?
Answer: Its value is 98.8%.

Question: What about the “Stability % 40° C. day 28” value ([4]; Nitrogen, 15 KGy, RT) of the same molecule?
Answer: Its value is 99.5%.

Question: What about the “Stability % t = 0” value ([4]; Nitrogen, 15 KGy, RT) of the same molecule?
Answer: Its value is 100%.

Question: And the “Stability % 25° C. day 28” value ([4]; Nitrogen, 25 KGy, Cold)?
Answer: The value was 100%.

Question: And the “Stability % 40° C. day 28” value ([4]; Nitrogen, 25 KGy, Cold)?
Answer: The value was 99.3%.

Question: And the “Stability % t = 0” value ([4]; Nitrogen, 25 KGy, Cold)?
Answer: The value was 100%.

Question: And the “Stability % 25° C. day 28” value ([4]; Nitrogen, 25 KGy, RT)?
Answer: The value was 99.6%.

Question: What about the “Stability % 40° C. day 28” value ([4]; Nitrogen, 25 KGy, RT) of the same molecule?
Answer: The value was 99.4%.

Question: And the “Stability % t = 0” value ([4]; Nitrogen, 25 KGy, RT)?
Answer: Its value is 100.5%.

Question: What about the “Stability % 25° C. day 28” value [4, 5] of the same molecule?
Answer: Its value is 99.6%.

Question: What about the “Stability % 40° C. day 28” value [4, 5] of the same molecule?
Answer: Its value is 99%.

Question: What about the “Stability % t = 0” value [4, 5] of the same molecule?
Answer: The value was 100%.

Question: And the “Stability % 25° C. day 28” value [4, 6]?
Answer: Its value is 98.7%.

Question: And the “Stability % 40° C. day 28” value [4, 6]?
Answer: The value was 97.7%.

Question: And the “Stability % t = 0” value [4, 6]?
Answer: Its value is 99.5%.

Question: What about the “Particle size distribution X10” value ([2]; Jet milled) of the same molecule?
Answer: Its value is 0.61 ± 0.01 μm.

Question: What about the “Particle size distribution X50” value ([2]; Jet milled) of the same molecule?
Answer: Its value is 1.79 ± 0.03 μm.

Question: And the “Particle size distribution X90” value ([2]; Jet milled)?
Answer: Its value is 3.95 ± 0.04 μm.

Question: And the “VMD (Volume mean diameter in μm)” value ([2]; Jet milled)?
Answer: The value was 2.07 μm.

Question: And the “Particle size distribution X10” value ([2]; Raw (pre-milled))?
Answer: The value was 0.94 μm.

Question: And the “Particle size distribution X50” value ([2]; Raw (pre-milled))?
Answer: Its value is 3.79 μm.

Question: What about the “Particle size distribution X90” value ([2]; Raw (pre-milled)) of the same molecule?
Answer: Its value is 44.75 μm.

Question: And the “VMD (Volume mean diameter in μm)” value ([2]; Raw (pre-milled))?
Answer: The value was 14.70 μm.
